{"source": "patent EP1787658B1", "about": "“Sustained release formulations of somatostatin analogue inhibitors of growth hormone” (CHEMI S.p.A., priority 2005, dated 2012)", "test": "Plasma levels of somatostatin analogue after a single s.c. or i.m. administration, by LC/MS-MS", "type": "in vivo, rats", "conditions": "after both s.c. and i.m injection", "description": "Two groups of animals were treated with a single administration each s.c. and i.m, of 100µl of the formulation (3.37 mg of oligopeptide equal to 15mg/Kg). Blood samples from 5 animals per time point were collected at different time points up to 49 days after treatment. The plasma levels of somatostine analogue were determined by a LC/MS-MS method.\nMean plasma, levels and standard deviations for each time point are shown in the table below (Table 2) and in Figures 1 and 2."}
{"molecule": "C[C@@H](O)[C@@H]1NC(=O)[C@H](CCCCN)NC(=O)[C@@H](Cc2c[nH]c3ccccc23)NC(=O)[C@H](Cc2ccccc2)NC(=O)[C@@H](NC(=O)[C@H](N)Cc2ccccc2)CSSC[C@@H](C(=O)N[C@H](CO)[C@@H](C)O)NC1=O", "note": "[Octreotide acetate]", "values": [{"measurement": "presence of detectable levels of the oligopeptide", "value": "up to 49 days"}]}
